Details: for surface tension liquid-gas: Drop volume; for mass density / kinematic viscosity / speed of sound / vapor or sublimation pressure: Liquid; for mass density: Vibrating tube method; for kinematic viscosity / speed of sound: 101.33 kPa; for kinematic viscosity: Capillary tube (Ostwald / Ubbelohde) method; for speed of sound: Sing-around technique in a fixed-path interferometer; for vapor or sublimation pressure: Ebulliometric method (Recirculating still)

Cc1ccco1 [2-methylfuran]
Details | kinematic viscosity [m2/s] | speed of sound [m/s] | surface tension liquid-gas [mN/m] | vapor or sublimation pressure [kPa]
278.15 K | 5.39e-07 | 1254.8 | 27.02 | –
280.65 K | 5.23e-07 | 1243.4 | 26.6 | –
283.15 K | 5.08e-07 | 1231.9 | 26.29 | –
285.37 K | – | – | – | 12.57
285.65 K | 4.93e-07 | 1220.4 | 26 | –
286.86 K | – | – | – | 13.65
288.15 K | 4.79e-07 | 1209 | 25.69 | –
289.1 K | – | – | – | 15.22
290.65 K | 4.66e-07 | 1197.5 | 25.26 | –
291.81 K | – | – | – | 17.26
293.15 K | 4.55e-07 | 1186 | 24.98 | –
293.4 K | – | – | – | 18.52
294.3 K | – | – | – | 19.48
295.65 K | 4.46e-07 | 1174.6 | 24.66 | –
295.86 K | – | – | – | 20.63
297.45 K | – | – | – | 22.34
298.15 K | 4.38e-07 | 1163.2 | 24.34 | –
299.76 K | – | – | – | 24.68
300.65 K | 4.29e-07 | 1151.9 | 24.03 | –
300.83 K | – | – | – | 25.8
303.15 K | 4.2e-07 | 1140.6 | 23.71 | –
303.45 K | – | – | – | 28.68
305.13 K | – | – | – | 30.8
305.65 K | 4.11e-07 | 1129.3 | 23.41 | –
307.42 K | – | – | – | 33.94
308.15 K | 4.01e-07 | 1118.1 | 23.06 | –

Details | mass density [kg/m3]
278.15 K, 99 kPa | 934.034
280.65 K, 99 kPa | 931.092
283.15 K, 99 kPa | 928.13
283.15 K, 100 kPa | 928.13
283.15 K, 2500 kPa | 930.56
283.15 K, 5000 kPa | 932.75
283.15 K, 7500 kPa | 935.07
283.15 K, 10000 kPa | 937.27
283.15 K, 20000 kPa | 945.74
283.15 K, 30000 kPa | 953.37
283.15 K, 40000 kPa | 960.5
283.15 K, 50000 kPa | 967.21
283.15 K, 60000 kPa | 973.54
285.65 K, 99 kPa | 925.161
288.15 K, 99 kPa | 922.181
288.15 K, 100 kPa | 922.18
288.15 K, 2500 kPa | 924.54
288.15 K, 5000 kPa | 926.97
288.15 K, 7500 kPa | 929.48
288.15 K, 10000 kPa | 931.62
288.15 K, 20000 kPa | 940.4
288.15 K, 30000 kPa | 948.28
288.15 K, 40000 kPa | 955.59
288.15 K, 50000 kPa | 962.35
288.15 K, 60000 kPa | 968.84
290.65 K, 99 kPa | 919.197
293.15 K, 99 kPa | 916.198
293.15 K, 100 kPa | 916.2
293.15 K, 2500 kPa | 918.63
293.15 K, 5000 kPa | 921.3
293.15 K, 7500 kPa | 923.72
293.15 K, 10000 kPa | 926.09
293.15 K, 20000 kPa | 934.94
293.15 K, 30000 kPa | 943.1
293.15 K, 40000 kPa | 950.59
293.15 K, 50000 kPa | 957.61
293.15 K, 60000 kPa | 964.27
295.65 K, 99 kPa | 913.193
298.15 K, 99 kPa | 910.179
298.15 K, 100 kPa | 910.18
298.15 K, 2500 kPa | 912.71
298.15 K, 5000 kPa | 915.3
298.15 K, 7500 kPa | 918
298.15 K, 10000 kPa | 920.32
298.15 K, 20000 kPa | 929.72
298.15 K, 30000 kPa | 937.91
298.15 K, 40000 kPa | 945.67
298.15 K, 50000 kPa | 952.89
298.15 K, 60000 kPa | 959.58
300.65 K, 99 kPa | 907.155
303.15 K, 99 kPa | 904.121
303.15 K, 100 kPa | 904.12
303.15 K, 2500 kPa | 906.73
303.15 K, 5000 kPa | 909.46
303.15 K, 7500 kPa | 912.07
303.15 K, 10000 kPa | 914.76
303.15 K, 20000 kPa | 924.23
303.15 K, 30000 kPa | 932.75
303.15 K, 40000 kPa | 940.68
303.15 K, 50000 kPa | 948.03
303.15 K, 60000 kPa | 955.1
305.65 K, 99 kPa | 901.077
308.15 K, 99 kPa | 898.02
308.15 K, 100 kPa | 898.02
308.15 K, 2500 kPa | 900.91
308.15 K, 5000 kPa | 903.72
308.15 K, 7500 kPa | 906.43
308.15 K, 10000 kPa | 909.05
308.15 K, 20000 kPa | 918.85
308.15 K, 30000 kPa | 927.65
308.15 K, 40000 kPa | 935.68
308.15 K, 50000 kPa | 943.2
308.15 K, 60000 kPa | 950.35

Reference: the NIST ThermoML archive (doi:10.1016/j.tca.2015.08.013)
